Measured values as given in patent US20250346600A1, “TRICYCLIC DERIVATIVES AND RELATED USES” (MOMA Therapeutics, Inc., priority 2023, published 2025).

How the values were obtained:
[1] = target: T1, Full length WRN protein (aa 2-1432) (Homo sapiens (Human), UniProt Q14191); assay: WRN ATPase ADP-Glo biochemical assay, Assay Format A (10 μM ATP); settings: 0.25 nM WRN, 100 nM C6.18 ssDNA, 30 min preincubation, read-out: ATPase ADPGlo AC50 (uM)- Assay Format A
Method in brief: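 ADP-Glo luminescence measured hydrolysis of ATP by purified, baculovirus-expressed N-terminally tagged full-length WRN. Enzyme (0.5 nM) was preincubated 30 min with compound, then 200 nM ssDNA C6.18 plus 20 μM ATP were added (pre-mix levels) for 30 min at RT. IC50s come from four-parameter fits, geometric mean of at least two trials.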

HT29 cells = assay: HT29 (MSS) 7 day viability, CellTiter Glo; type: cell-based; settings: Homo sapiens, HT-29, 168 h, 7 days, read-out: HT29 (MSS) Viability 7 Day CTGAbs AC50
Method in brief: (§1)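 10 mM DMSO stocks serially diluted 3-fold, 10 steps; cells added (HCT116 50/well, HT29 500/well); 7 d, 37 °C, 5% CO2; CellTiter Glo 20 min RT; luminescence.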

HCT116 cells = assay: HCT116 (MSI) 7 day viability, CellTiter Glo; type: cell-based; settings: Homo sapiens, HCT-116, 168 h, 7 days, read-out: HCT116 (MSI) Viability 7 Day Abs AC50
Method in brief: as §1

[2] = target: T1, Full length WRN protein (aa 2-1432); assay: WRN ATPase ADP-Glo biochemical assay, Assay Format B (100 μM ATP); settings: 0.25 nM WRN, 100 nM C6.18 ssDNA, 60 min preincubation, read-out: ATPase ADPGlo AC50 (uM)- Assay Format B

T1 sequence (Q14191 2-1432): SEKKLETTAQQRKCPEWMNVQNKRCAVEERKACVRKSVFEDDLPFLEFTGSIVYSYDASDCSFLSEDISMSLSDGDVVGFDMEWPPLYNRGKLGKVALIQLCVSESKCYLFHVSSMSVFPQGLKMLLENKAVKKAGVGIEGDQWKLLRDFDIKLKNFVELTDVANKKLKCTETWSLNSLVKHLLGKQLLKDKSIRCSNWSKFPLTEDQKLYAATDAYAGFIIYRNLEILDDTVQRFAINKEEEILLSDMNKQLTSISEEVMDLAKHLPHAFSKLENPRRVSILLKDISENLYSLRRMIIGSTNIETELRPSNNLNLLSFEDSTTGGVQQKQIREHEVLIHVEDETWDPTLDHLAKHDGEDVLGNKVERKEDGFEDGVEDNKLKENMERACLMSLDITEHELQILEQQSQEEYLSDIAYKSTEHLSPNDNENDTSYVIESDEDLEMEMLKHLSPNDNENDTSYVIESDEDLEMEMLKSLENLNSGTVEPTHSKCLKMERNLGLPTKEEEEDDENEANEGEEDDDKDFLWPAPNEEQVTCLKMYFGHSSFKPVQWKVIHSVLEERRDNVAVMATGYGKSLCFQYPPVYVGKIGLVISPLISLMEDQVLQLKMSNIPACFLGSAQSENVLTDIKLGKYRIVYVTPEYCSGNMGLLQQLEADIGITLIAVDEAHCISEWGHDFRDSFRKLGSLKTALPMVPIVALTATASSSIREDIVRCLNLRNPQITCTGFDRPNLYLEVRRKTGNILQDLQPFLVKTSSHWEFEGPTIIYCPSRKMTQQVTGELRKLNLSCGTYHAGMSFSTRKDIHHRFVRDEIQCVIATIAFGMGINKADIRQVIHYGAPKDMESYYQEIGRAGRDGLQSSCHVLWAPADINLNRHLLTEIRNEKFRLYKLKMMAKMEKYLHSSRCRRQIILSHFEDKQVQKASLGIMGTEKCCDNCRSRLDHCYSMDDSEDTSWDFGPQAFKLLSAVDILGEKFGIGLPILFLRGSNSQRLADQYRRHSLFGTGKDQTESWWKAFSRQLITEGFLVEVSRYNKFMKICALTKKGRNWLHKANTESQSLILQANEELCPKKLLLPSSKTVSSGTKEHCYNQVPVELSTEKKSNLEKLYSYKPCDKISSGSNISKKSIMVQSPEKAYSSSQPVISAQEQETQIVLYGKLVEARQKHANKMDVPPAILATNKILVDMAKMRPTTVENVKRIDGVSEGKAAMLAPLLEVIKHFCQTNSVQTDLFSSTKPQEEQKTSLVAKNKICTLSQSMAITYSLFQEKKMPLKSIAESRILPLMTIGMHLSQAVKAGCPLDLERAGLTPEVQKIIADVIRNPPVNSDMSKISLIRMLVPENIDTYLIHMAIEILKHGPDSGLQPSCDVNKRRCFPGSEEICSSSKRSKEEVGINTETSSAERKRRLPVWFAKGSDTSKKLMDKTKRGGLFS

SMILES	AC50 [1] [µM]	AC50 (HT29 cells) [µM]	AC50 (HCT116 cells) [µM]	AC50 [2] [µM]
C=CC(=O)N1CC(OCc2cccnc2)c2nn(-c3ccc(C4CC4)cc3)c3c2C(C1)N(C(=O)c1cnc(C(F)(F)F)cc1N)CC3 (stereo not shown) [Compound 251, 1-(5-(4-amino-6-(trifluoromethyl)nicotinoyl)-2-(4-cyclopropylphenyl)-9-(pyridin-3-ylmethoxy)-2,3,4,5,5a,6,8,9-octahydro-7H-1,2,5,7-tetraazabenzo[cd]azulen-7-yl)prop-2-en-1-one]	< 0.0015	> 3	0.001 to 0.1	0.005 to 0.015
C=CC(=O)N1CCc2nn(-c3ccc(C4CC4)cc3OC(F)F)c3c2C(C1)N(C(=O)c1cnc(C(F)(F)F)cc1N)CC3 (stereo not shown) [Compound 252, 1-(5-(4-amino-6-(trifluoromethyl)nicotinoyl)-2-(4-cyclopropyl-2-(difluoromethoxy)phenyl)-2,3,4,5,5a,6,8,9-octahydro-7H-1,2,5,7-tetraazabenzo[cd]azulen-7-yl)prop-2-en-1-one]	0.0015 to 0.005	> 3	0.001 to 0.1	0.005 to 0.015
C=CC(=O)N1CC(OCC2CCOCC2)c2nn(-c3ccc(C4CC4)cc3)c3c2C(C1)N(C(=O)c1cnc(C(F)(F)F)cc1N)CC3 (stereo not shown) [Compound 255, 1-(5-(4-amino-6-(trifluoromethyl)nicotinoyl)-2-(4-cyclopropylphenyl)-9-((tetrahydro-2H-pyran-4-yl)methoxy)-2,3,4,5,5a,6,8,9-octahydro-7H-1,2,5,7-tetraazabenzo[cd]azulen-7-yl)prop-2-en-1-one]	< 0.0015	> 3	0.001 to 0.1	0.005 to 0.015
C=CC(=O)N1CCc2nn(-c3ccc(C4CC4)cc3C(F)(F)F)c3c2C(C1)N(C(=O)c1cnc(C(F)(F)F)cc1N)CC3 (stereo not shown) [Compound 256, 1-(5-(4-amino-6-(trifluoromethyl)nicotinoyl)-2-(4-cyclopropyl-2-(trifluoromethyl)phenyl)-2,3,4,5,5a,6,8,9-octahydro-7H-1,2,5,7-tetraazabenzo[cd]azulen-7-yl)prop-2-en-1-one]	0.015 to 0.055	> 3	0.25 to 0.5	> 0.055
CS(=O)(=O)/C=C/CN1CCc2nn(-c3ccc(C4CC4)cc3O)c3c2C(C1)N(C(=O)c1cnc(C(F)(F)F)cc1N)CC3 (stereo not shown) [Compound 257, (4-amino-6-(trifluoromethyl)pyridin-3-yl)(2-(4-cyclopropyl-2-hydroxyphenyl)-7-(3-(methylsulfonyl)allyl)-3,4,6,7,8,9-hexahydro-2H-1,2,5,7-tetraazabenzo[cd]azulen-5(5aH)-yl)methanone]	> 0.055	> 3	> 1	> 0.055
C=CC(=O)N1CCc2nn(-c3ccc(C4CC4)c(F)c3O)c3c2C(C1)N(C(=O)c1cnc(OC(F)(F)F)c(F)c1N)CC3 (stereo not shown) [Compound 258, 1-(5-(4-amino-5-fluoro-6-(trifluoromethoxy)nicotinoyl)-2-(4-cyclopropyl-3-fluoro-2-hydroxyphenyl)-2,3,4,5,5a,6,8,9-octahydro-7H-1,2,5,7-tetraazabenzo[cd]azulen-7-yl)prop-2-en-1-one]	0.005 to 0.015	> 3	0.001 to 0.1	0.015 to 0.055
C=CC(=O)N1CC(OCC2=CCOCC2)c2nn(-c3ccc(C4CCC4)cc3)c3c2C(C1)N(C(=O)c1cnc(C(F)(F)F)cc1N)CC3 (stereo not shown) [Compound 260, 1-(5-(4-amino-6-(trifluoromethyl)nicotinoyl)-2-(4-cyclobutylphenyl)-9-((3,6-dihydro-2H-pyran-4-yl)methoxy)-2,3,4,5,5a,6,8,9-octahydro-7H-1,2,5,7-tetraazabenzo[cd]azulen-7-yl)prop-2-en-1-one]	< 0.0015	> 3	0.001 to 0.1	0.0015 to 0.005
